Test results reported in patent US20090311185A1, “Peptide having antianxiety activity and screening method therefor” (priority 2005, published 2009).
“Also recorded” adds a separate entry of the source. Bridges are numbered along the chain shown (N, C = ends). Roman numbers before positions name the chains, in order. Where no end group is shown, it is not given here.

Columns and labels:
[1] = target: T1, SALPR (Homo sapiens, UniProt Q9NSD7); assay: Suppression of forskolin-increased transcription activity (CRE-PLAP reporter) in SALPR-SE302 cells; type: cell-based; details: forskolin 1 μmol/L, 1 day incubation
T1 construct: the area encoding SALPR is known to be from position 1 to position 1407 (1410 base pairs, 469 amino acid residues); expressed in transfected cells; host or cells: SE302 cells (HEK293 clone carrying the CRE-PLAP reporter), transduced with retrovirus vector pBabeCL(SALPR)IH and selected with hygromycin
T1 sequence (Q9NSD7 1-469): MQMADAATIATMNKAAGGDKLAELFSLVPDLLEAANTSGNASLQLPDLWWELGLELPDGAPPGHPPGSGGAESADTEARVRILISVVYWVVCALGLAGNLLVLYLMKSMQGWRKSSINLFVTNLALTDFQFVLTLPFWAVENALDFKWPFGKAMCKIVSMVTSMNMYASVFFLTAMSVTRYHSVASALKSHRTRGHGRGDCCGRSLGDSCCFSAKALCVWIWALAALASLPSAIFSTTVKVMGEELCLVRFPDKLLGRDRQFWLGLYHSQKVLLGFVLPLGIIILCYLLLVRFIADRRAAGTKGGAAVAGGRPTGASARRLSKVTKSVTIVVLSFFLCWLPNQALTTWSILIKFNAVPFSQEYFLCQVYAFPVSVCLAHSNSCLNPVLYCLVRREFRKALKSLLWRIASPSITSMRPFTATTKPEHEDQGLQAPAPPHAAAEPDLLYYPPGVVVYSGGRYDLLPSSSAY
Method: SE302 cells (3×10^3) constructed in Example 5 above were cultured in a 96-well plate (Asahi Techno Glass) using 100 μl of DMEM (Sigma) supplemented with […] fetal bovine serum (FBS) and PS (hereinafter called “culture medium”). On the following day, the retrovirus vector prepared in Example 4 was appropriately diluted and a 100-μl portion of the dilution and polybrene (also called as hexadimethrine bromide, Sigma) prepared in the culture medium (at a final concentration of 8 μg/ml) were added to the SE302 cells. On the following day, the culture medium was replaced by 200 μl of a culture medium supplemented with 500 μg/ml hygromycin (Invitrogen) and then incubation was continued. The SE302 cells for SALPR gene transfer grown under these conditions (hereinafter called “SALPR-SE302 cells”) were appropriately subcultured for experimental use.
SALPR-SE302 cells constructed in Example 6 above were suspended in a medium for measuring transcription activity (DMEM supplemented with 10% FBS (inactivated at 65° C. for 30 minutes)) and then inoculated in a 96-well plate (Beckton Dickinson) at 1×10^4 cells/well. […]

[2] = tested on: THP-1 cells; details: THP-1 cells of the immune system; WO 01/81562, Bathgate et al. 2002; cited from earlier work
[3] = tested on: rats; assay: Defensive burying test after intracerebroventricular administration; type: in vivo, rat; details: F344 male rats, 15 min test, vs vehicle
Method: The influence of relaxin-3 on an anxiety activity was determined using a defensive burying test (Treit et al., Pharmacology Biochemistry and Behavior, 15, p. 619-626, 1981).
F344 male rats (7 weeks of age; Japan Charles River) were fed foods for experimental animals (MF; Oriental Yeast) to be adapted. The rats (150 to 200 g) received cannulation into the lateral cerebroventricle under anesthesia. Administration experiments of relaxin-3 were carried out a week or later.
The tested rats were placed and left in a testing chamber, which floor was covered with a bedding material to a height of 5 cm, for 30 minutes or more once a day from 3 days before the defensive burying test, so as to allow the tested rats to habituate to the testing environment. The rats were habituated to the environment without the stimulating electrode until the test. […]
On test day, the tested rats were placed in a test chamber (with bedding material to a height of 5 cm) with a stimulating electrode, so as to start an experiment. […] All behaviors of the tested rats were recorded using a videocamera, and the burying behavior time (burying time (sec.)) within 15 minutes from the first electrical shock was measured using the recorded tape. […]

[4] = tested on: mice; assay: Elevated plus-maze test after intracerebroventricular administration (mice); type: in vivo; details: BALB/c male mice, 1 nmol/mouse intracerebroventricular, 5 min test, vs vehicle
Method: The influence of relaxin-3 on anxiety activity was determined using an elevated plus-maze. An elevated plus-maze test is a behavioral pharmacological test which is widely used in the measurement of anxiety level of experimental animals such as rats or mice, or for the evaluation of drug efficacies of antianxiety drugs, using exploring behaviors in open arms, such as the time spent in open arms, as an index.
BALB/c male mice (7 weeks of age; Japan Charles River) were received cannulation into the lateral cerebroventricle under anesthesia. The mice were then fed, and administration experiments of relaxin-3 were carried out a week or later.
The human relaxin-3 (Peptide Institute, Inc.) was dissolved in physiological saline and was diluted to a final concentration of 1 nmol/mouse.
The tested mice with guide cannula implantation were intracerebroventricularly administered with each 2 μL of the human relaxin-3 administration solution (N=8) or a vehicle solution (physiological saline) (N=9) at a rate of 1 μL per minute using an infusion pump.
Antianxiety activities were measured using an elevated plus-maze. […] The behaviors of mice were recorded by a video, and the number of entries into the open and closed arms and the time spent in the open and closed arms were measured on each mouse by analyzing the video after the completion of the test. […]

[5] = tested on: rats; assay: Elevated plus-maze test after intracerebroventricular administration (rats); type: in vivo, rat; details: Wistar male rats, 5 min test, vs vehicle
Method: The influence of relaxin-3 on anxiety activity was determined using an elevated plus-maze.
Wistar male rats (9 weeks of age; Japan Charles River) were received cannulation into the lateral cerebroventricle under anesthesia. The rats were then fed, and administration experiments of relaxin-3 were carried out a week or later.
The human relaxin-3 (Peptide Institute, Inc.) was dissolved in physiological saline and was diluted to a final concentration of 10 pmol/rat or 50 pmol/rat.
The tested rats with guide cannula implantation were administered with 5 μL each of the human relaxin-3 administration solution (10 pmol/rat, N=8; or 50 pmol/rat, N=7), or vehicle group (physiological saline, N=7) at a rate of 2.5 μL per minute using an infusion pump.
Antianxiety activities were measured using an elevated plus-maze. The maze was raised 50 cm above the floor and included four arms arranged in the form of a plus sign (+) spread from the central platform (10 cm×10 cm) positioned at the center. Two opposite arms (50 cm long and 10 cm wide) are open arms, and the other two opposite arms (50 cm long, 10 cm wide with walls 40 cm high) were closed arms. Lighting was arranged so as to set the luminance at the floor in the open arms was 60 to 80 lux. A rat 10 minutes after the intracerebroventricular administration was placed in the center of the plus-maze so as to face one of the open arms, and the test was carried out for 5 minutes. The test was conducted only within a period from 11:00 to 16:00. The behaviors of rats were recorded by a video, and the number of entries into the open and closed arms and the time spent in the open and closed arms were measured on each mouse by analyzing the video after the completion of the test. FIGS. 7 and 8 show the total number of entries into open and closed arms and the percentage of time spent in open arms within 5 minutes, respectively. To compare among the human relaxin-3 administration groups and the vehicle group, a significant difference test by the t-test was conducted.

[6] = 50 pmol/rat intracerebroventricular

Row | Substance | transcription activity increased by addition of forskolin (alkaline phosphatase reporter) [1] | intracellular cyclic AMP (cAMP) [2] | burying behavior time ([3]; 0.05 nmol/rat intracerebroventricular) | burying behavior time ([3]; 1 nmol/rat intracerebroventricular, Dunnett P<0.05) | total number of entries into open and closed arms [4] | time spent in open arms ([4]; P<0.05) | total number of entries into open and closed arms ([5]; 10 pmol/rat intracerebroventricular) | time spent in open arms ([5]; 10 pmol/rat intracerebroventricular, P<0.05) | time spent in open arms [5, 6] | total number of entries into open and closed arms [5, 6]
1 | insulin [reference compound] | not affected |  |  |  |  |  |  |  |  | 
2 | relaxin-3: Relaxin-3 (Phoenix Pharmaceuticals) used in the SALPR reporter assay; mature two-chain polypeptide also known as INSL7 | suppresses; also recorded: specific dose-dependent suppression | increase |  |  |  |  |  |  |  | 
3 | human relaxin-3: Synthetic human relaxin-3: B-chain SEQ ID NO: 5 and A-chain SEQ ID NO: 6 bonded through disulfide bonds (beta RAAPYGVRLCGREFIRAVIFTCGGSRW; alpha DVLAGLSSSCCKWGCSKSEISSLC; disulfide I:10-II:11, I:22-II:24, II:10-II:15; not fully specified; ends not checked; listed as Homo sapiens) |  |  | decreased | significant decrease | no difference | significant increase | no difference | statistically significantly high | increase | no difference
